This is an account of results in patent publication US12065436B2, “Cardiac sarcomere inhibitors” (Cytokinetics, Inc., priority 2018, dated 2024).

A word on the IC50: it is the concentration at which inhibition is half-maximal. As a reminder, the IC10 is the concentration at which the effect reaches the 10% level.

Where two headings read alike, the source gives them in different places.

The target of assay [1] is bovine cardiac myofibrils (full-length cardiac myosin ATPase in the native sarcomere) (Bos taurus (Bovine), UniProt Q9BE39). Briefly: Skinned bovine cardiac myofibril ATPase assay (PK/LDH-coupled). The following applies: Ca2+ activating to 75% of maximal rate; for CDMF75 IC15: concentration giving 15% inhibition; for IC50: read-out: CDMF75 IC50. Format: biochemical. Summed up:
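Triton-skinned bovine left-ventricle myofibrils (1 mg/mL) in PM 12 buffer (12 mM PIPES, 2 mM MgCl2, pH 6.8) with 50 μM ATP, 0.6 mM EGTA and CaCl2 set for 50% or 75% activation. Steady-state ATPase inhibition followed by PK/LDH-coupled NADH oxidation at 340 nm.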

The test system of assay [2] is rat cardiac contractility (left ventricle fractional shortening). The experiment in a line: Echocardiography of acute effect on rat cardiac contractility, continuous IV infusion. The class given is in vivo, Sprague Dawley rats. Conditions: plasma concentration at which fractional shortening is 50% of pre-dose baseline, estimated, read-out: IC50 (Mean ± S.D.). As to the method:
(§1) Assessment of in vivo cardiac function by echocardiography was performed in male Sprague Dawley rats under isoflurane (1-3%) anesthesia. 2-D M-mode images of the left ventricle were acquired in the parasternal long-axis view before, during, and after administration of compounds by continuous IV infusion or oral gavage. In vivo fractional shortening was determined by M-mode image analysis with the following calculation: ((End diastolic diameter−end systolic diameter)/end diastolic diameter×100). For continuous IV infusion experiments, three pre-dose baseline M-mode images were taken at 1 minute intervals prior to infusion of compound. Compounds were formulated in 50% Propylene Glycol (PG): 16% Captisol: 10% dimethylacetamide (DMA) and delivered via a jugular vein catheter at the rate of 1 mL/kg/h. During infusion, M-mode images were taken at 5 minute intervals. The infusion stopped when fractional shortening reached up to a 60% reduction from baseline. Blood samples were taken to determine the plasma concentration of the compounds. Data was reported as an estimated IC50 value, which is the concentration at which fractional shortening is 50% of the pre-dose baseline contractility.

For assay [3] the test system is unchanged. The experiment in a line: Echocardiography of acute effect on rat cardiac contractility, oral gavage. The class given is in vivo, Sprague Dawley rats. Conditions: for inhibition in vivo at 4 mg/kg / IC50 / inhibition in vivo at 8 mg/kg / inhibition in vivo at 6 mg/kg: Rattus norvegicus; for inhibition in vivo at 4 mg/kg / inhibition in vivo at 8 mg/kg / inhibition in vivo at 6 mg/kg: oral gavage; for IC50 / IC10: oral dosing, estimated; for IC50: plasma concentration at which fractional shortening is 50% of pre-dose baseline; for IC10: plasma concentration at which. As for the experimental part: as §1
For oral dosing studies, three pre-dose baseline M-Mode images were taken at 1 minute intervals prior to compound administration. Compounds were formulated in a 0.5% hydroxypropyl methylcellulose 2910 (HPMC 2910): 0.1% Tween 80 suspension and delivered as a single dose (5 mL/kg) by oral gavage. Rats were lightly anesthetized for M-Mode echocardiography measurements at select time points over a 24 hour period. Different dose levels were evaluated for each compound. The compound effect on cardiac fractional shortening at the highest dose evaluated is presented in Table D as a percent reduction of baseline fractional shortening (=100%).
Concurrent with echocardiography measurements, blood samples were taken to determine the corresponding compound plasma concentration.

[4] abbreviates: 1 h, 1-2 h post dose, read-out: FS (% reduction from baseline) at 1-2 h post dose (Mean ± S.D.).
Setting [5] is: 4 h post dose, read-out: FS (% reduction from baseline) at 4 h post dose (Mean ± S.D.).

Chain of bovine cardiac myofibrils (full-length cardiac myosin ATPase in the native sarcomere) (Q9BE39 whole entry): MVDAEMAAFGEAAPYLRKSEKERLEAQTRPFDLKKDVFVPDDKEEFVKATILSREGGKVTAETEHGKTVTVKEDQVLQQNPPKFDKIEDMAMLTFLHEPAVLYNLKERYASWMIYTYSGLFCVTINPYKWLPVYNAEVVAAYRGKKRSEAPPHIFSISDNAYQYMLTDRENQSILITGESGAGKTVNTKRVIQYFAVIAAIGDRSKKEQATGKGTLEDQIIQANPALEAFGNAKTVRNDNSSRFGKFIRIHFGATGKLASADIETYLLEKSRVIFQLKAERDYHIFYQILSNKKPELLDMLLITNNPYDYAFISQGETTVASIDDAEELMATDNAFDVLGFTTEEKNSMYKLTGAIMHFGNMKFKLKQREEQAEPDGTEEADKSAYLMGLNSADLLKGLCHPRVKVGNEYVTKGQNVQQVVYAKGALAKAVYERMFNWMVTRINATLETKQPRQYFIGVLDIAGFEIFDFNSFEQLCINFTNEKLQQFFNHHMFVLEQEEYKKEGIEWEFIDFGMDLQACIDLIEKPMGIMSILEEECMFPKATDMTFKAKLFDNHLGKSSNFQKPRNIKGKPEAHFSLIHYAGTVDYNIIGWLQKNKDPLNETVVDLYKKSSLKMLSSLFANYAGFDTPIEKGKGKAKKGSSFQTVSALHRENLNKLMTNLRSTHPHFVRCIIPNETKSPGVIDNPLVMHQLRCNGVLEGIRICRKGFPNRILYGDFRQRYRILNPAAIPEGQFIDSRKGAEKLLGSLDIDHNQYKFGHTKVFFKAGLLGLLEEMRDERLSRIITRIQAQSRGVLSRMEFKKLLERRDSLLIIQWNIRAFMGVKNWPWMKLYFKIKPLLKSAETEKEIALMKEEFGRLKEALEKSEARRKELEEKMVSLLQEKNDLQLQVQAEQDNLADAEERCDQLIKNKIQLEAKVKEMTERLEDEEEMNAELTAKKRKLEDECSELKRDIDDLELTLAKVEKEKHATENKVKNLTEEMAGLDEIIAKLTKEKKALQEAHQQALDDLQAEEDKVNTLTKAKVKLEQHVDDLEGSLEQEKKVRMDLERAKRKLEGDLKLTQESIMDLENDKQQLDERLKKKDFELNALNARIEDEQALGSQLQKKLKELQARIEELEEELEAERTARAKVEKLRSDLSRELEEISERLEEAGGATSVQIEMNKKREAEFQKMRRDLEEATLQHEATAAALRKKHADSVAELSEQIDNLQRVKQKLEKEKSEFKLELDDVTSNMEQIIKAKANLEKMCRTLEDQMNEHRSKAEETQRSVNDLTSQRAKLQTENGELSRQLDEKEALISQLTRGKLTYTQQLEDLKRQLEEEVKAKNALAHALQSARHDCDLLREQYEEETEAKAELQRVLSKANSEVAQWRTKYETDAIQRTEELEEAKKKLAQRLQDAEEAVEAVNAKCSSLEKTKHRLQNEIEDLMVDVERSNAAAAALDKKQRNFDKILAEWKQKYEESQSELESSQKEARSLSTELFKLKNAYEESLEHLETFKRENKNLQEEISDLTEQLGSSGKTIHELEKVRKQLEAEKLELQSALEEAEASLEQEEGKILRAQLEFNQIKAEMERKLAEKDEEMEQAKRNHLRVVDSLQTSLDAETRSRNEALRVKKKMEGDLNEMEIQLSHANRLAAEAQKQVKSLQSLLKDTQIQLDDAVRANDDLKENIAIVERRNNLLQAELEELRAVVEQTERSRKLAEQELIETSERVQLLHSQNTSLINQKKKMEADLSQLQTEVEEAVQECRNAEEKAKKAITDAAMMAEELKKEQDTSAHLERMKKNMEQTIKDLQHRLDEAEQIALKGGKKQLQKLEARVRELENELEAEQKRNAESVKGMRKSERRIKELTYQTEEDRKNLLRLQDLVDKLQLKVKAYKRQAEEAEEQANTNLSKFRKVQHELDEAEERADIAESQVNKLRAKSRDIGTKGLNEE
Chain of bovine cardiac myofibrils (full-length cardiac myosin ATPase in the native sarcomere) (P85100 whole entry partner): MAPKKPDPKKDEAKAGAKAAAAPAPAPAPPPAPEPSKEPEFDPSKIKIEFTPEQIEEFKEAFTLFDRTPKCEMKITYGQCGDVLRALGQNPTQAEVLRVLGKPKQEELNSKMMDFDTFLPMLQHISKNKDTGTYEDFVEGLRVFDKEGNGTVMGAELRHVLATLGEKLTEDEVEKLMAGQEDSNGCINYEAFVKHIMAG
Chain of bovine cardiac myofibrils (full-length cardiac myosin ATPase in the native sarcomere) (Q3SZE5 whole entry partner): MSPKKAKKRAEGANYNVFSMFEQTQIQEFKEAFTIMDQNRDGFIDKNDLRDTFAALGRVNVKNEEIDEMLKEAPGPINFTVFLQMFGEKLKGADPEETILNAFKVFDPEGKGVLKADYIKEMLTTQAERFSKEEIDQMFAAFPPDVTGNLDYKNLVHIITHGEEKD

In the case of `COCc1nc(-c2ccc3c(c2)CC[C@H]3NC(=O)c2nnn(C)n2)no1` [Compound 144, (R)-N-(5-(5-(methoxymethyl)-1,2,4-oxadiazol-3-yl)-2,3-dihydro-1H-inden-1-yl)-2-methyl-2H-tetrazole-5-carboxamide], in assay [1], the “CDMF75 IC15” value was found to be 600 nM and the IC50 worked out at 2300 nM. The IC50 in assay [2] (Rattus norvegicus) was 3400 ± 120 nM.

`CCc1cc(-c2ccc3c(c2)OC[C@H]3NC(=O)c2cn[nH]c2C)no1` [Compound 433, (S)—N-(6-(5-ethylisoxazol-3-yl)-2,3-dihydrobenzofuran-3-yl)-5-methyl-1H-pyrazole-4-carboxamide]: the “CDMF75 IC15” value in assay [1] worked out at 300 nM. Further, the IC50 in assay [1] is 900 nM; in assay [2] (Rattus norvegicus), 4300 ± 110 nM.

For `Cc1cc(-c2ccc3c(c2)OC[C@H]3NC(=O)c2cn[nH]c2C)no1` [Compound 434, (S)-5-methyl-N-(6-(5-methylisoxazol-3-yl)-2,3-dihydrobenzofuran-3-yl)-1H-pyrazole-4-carboxamide], in assay [1], the “CDMF75 IC15” value amounted to 700 nM and the IC50 was determined as 2400 nM. In addition, the half-maximal inhibitory concentration (IC50) in assay [2] (Rattus norvegicus) was 9300 ± 150 nM.

Consider “(R)—N-(7-(5-ethyl-1,2,4-oxadiazol-3-yl)chroman-4-yl)-1-methyl-1H-pyrazole-5-carboxamide [Compound 538]”, for which, in assay [1], the “CDMF75 IC15” value worked out at 700 nM and the IC50 turned out to be 3300 nM. Also, in assay [2], the IC50 was 10900 ± 370 nM.

As to `Cc1n[nH]cc1C(=O)N[C@@H]1CCc2cc(-c3noc(C4CC4)n3)ccc21` [Compound 420, (R)-N-(5-(5-cyclopropyl-1,2,4-oxadiazol-3-yl)-2,3-dihydro-1H-inden-1-yl)-3-methyl-1H-pyrazole-4-carboxamide], in assay [1], the “CDMF75 IC15” value amounted to 400 nM and the IC50 is 1400 nM. Besides, the IC50 in assay [2] (Rattus norvegicus) is 2100 ± 50 nM.

Turning to `Cn1nnc(C(=O)N[C@@H]2CCc3cc(-c4noc(C5CC5)n4)ccc32)n1` [Compound 141, (R)—N-(5-(5-cyclopropyl-1,2,4-oxadiazol-3-yl)-2,3-dihydro-1H-inden-1-yl)-2-methyl-2H-tetrazole-5-carboxamide], in assay [1], the “CDMF75 IC15” value worked out at 300 nM and the IC50 was found to be 900 nM. Besides, the IC50 in assay [2] (Rattus norvegicus) was 1500 ± 50 nM.

On to `CCc1nc(-c2ccc3c(c2)CC[C@H]3NC(=O)OC)no1` [Compound 304, methyl (R)-(5-(5-ethyl-1,2,4-oxadiazol-3-yl)-2,3-dihydro-1H-inden-1-yl)carbamate], for which, in assay [1], the “CDMF75 IC15” value came out at 200 nM. Further, the IC50 in assay [1] is 700 nM; in assay [2] (Rattus norvegicus), 1700 ± 60 nM.

Consider `CCc1nc(-c2ccc3c(c2)CC[C@H]3NC(=O)c2ccnc(CO)c2)no1` [Compound 577, (R)-N-(5-(5-ethyl-1,2,4-oxadiazol-3-yl)-2,3-dihydro-1H-inden-1-yl)-2-(hydroxymethyl)isonicotinamide], for which, in assay [1], the “CDMF75 IC15” value amounted to 400 nM and the IC50 is 1300 nM. The inhibition in vivo at 4 mg/kg in assay [3] (setting [4]) turned out to be 67 ± 6%. Also, in assay [3], the IC50 was 700 nM and the IC10 was 100 nM. Further, in assay [3] (setting [5]), the inhibition in vivo at 4 mg/kg was 34 ± 11%.

Take `Cc1ncc(C(=O)N[C@@H]2CCc3cc(-c4noc(C5CC5)n4)ccc32)o1` [Compound 388, (R)-N-(5-(5-cyclopropyl-1,2,4-oxadiazol-3-yl)-2,3-dihydro-1H-inden-1-yl)-2-methyloxazole-5-carboxamide]: in assay [1], the “CDMF75 IC15” value is 900 nM and the IC50 stood at 2800 nM. For the same compound, the IC50 in assay [2] (Rattus norvegicus) was 5400 ± 100 nM.

Regarding `COCc1nc(-c2ccc3c(c2)CC[C@H]3NC(=O)c2ccnc(CO)c2)no1` [Compound 727, (R)-2-(hydroxymethyl)-N-(5-(5-(methoxymethyl)-1,2,4-oxadiazol-3-yl)-2,3-dihydro-1H-inden-1-yl)isonicotinamide], the “CDMF75 IC15” value in assay [1] was found to be 1200 nM. For the same compound, the results for the IC50 in assay [1] and in assay [3] were 4100 nM and 4700 nM, respectively. Besides, the inhibition in vivo at 8 mg/kg in assay [3] (setting [4]) was 63 ± 1%; in assay [3] (setting [5]), 33 ± 1%. In addition, in assay [3], the IC10 is 1200 nM.

As to `O=C(N[C@@H]1CCc2cc(-c3noc(C4CC4)n3)ccc21)c1cn[nH]c1` [Compound 489, (R)-N-(5-(5-cyclopropyl-1,2,4-oxadiazol-3-yl)-2,3-dihydro-1H-inden-1-yl)-1H-pyrazole-4-carboxamide], in assay [1], the “CDMF75 IC15” value came to 600 nM and the IC50 was found to be 2200 nM. Besides, in assay [3] (setting [4]), the inhibition in vivo at 6 mg/kg turned out to be 65 ± 6%. In addition, in assay [3], the IC50 is 2400 nM and the IC10 is 700 nM. Also, the inhibition in vivo at 6 mg/kg in assay [3] (setting [5]) came out at 35 ± 6%.

In the case of `Cn1cc(C(=O)N[C@@H]2COc3cc(-c4noc(C5CC5)n4)ccc32)cn1` [Compound 236, (S)—N-(6-(5-cyclopropyl-1,2,4-oxadiazol-3-yl)-2,3-dihydrobenzofuran-3-yl)-1-methyl-1H-pyrazole-4-carboxamide], in assay [1], the “CDMF75 IC15” value stood at 500 nM and the IC50 stood at 1800 nM. The IC50 in assay [2] (Rattus norvegicus) was 11400 ± 600 nM.

For `Cc1nc(-c2ccc3c(c2)OC[C@H]3NC(=O)c2cnn(C)c2)no1` [Compound 211, (S)-1-methyl-N-(6-(5-methyl-1,2,4-oxadiazol-3-yl)-2,3-dihydrobenzofuran-3-yl)-1H-pyrazole-4-carboxamide], in assay [1], the “CDMF75 IC15” value was 800 nM and the IC50 was 2800 nM. In addition, the IC50 in assay [2] (Rattus norvegicus) is 5400 ± 250 nM.

With `CCc1cc(-c2ccc3c(c2)OC[C@H]3NC(=O)c2nnn(C)n2)no1` [Compound 365, (S)-N-(6-(5-ethylisoxazol-3-yl)-2,3-dihydrobenzofuran-3-yl)-2-methyl-2H-tetrazole-5-carboxamide], in assay [1], the “CDMF75 IC15” value came to 600 nM. Besides, the IC50 in assay [1] was 2200 nM; in assay [2] (Rattus norvegicus) it was 4600 ± 170 nM.

Consider `Cc1nc(-c2ccc3c(c2)OC[C@H]3NC(=O)c2cn(C)nc2C)no1` [Compound 158, (S)-1,3-dimethyl-N-(6-(5-methyl-1,2,4-oxadiazol-3-yl)-2,3-dihydrobenzofuran-3-yl)-1H-pyrazole-4-carboxamide], for which, in assay [1], the “CDMF75 IC15” value worked out at 700 nM and the IC50 was determined as 2800 nM. The IC50 in assay [2] (Rattus norvegicus) was 1100 ± 30 nM.

In the case of `Cn1nccc1C(=O)N[C@@H]1COc2cc(-c3noc(C4CC4)n3)ccc21` [Compound 222, (S)—N-(6-(5-cyclopropyl-1,2,4-oxadiazol-3-yl)-2,3-dihydrobenzofuran-3-yl)-1-methyl-1H-pyrazole-5-carboxamide], the “CDMF75 IC15” value in assay [1] worked out at 300 nM. For the same compound, the IC50 in assay [1] is 1000 nM; in assay [2] (Rattus norvegicus), 1100 ± 30 nM.

Turning to `O=C(N[C@@H]1CCc2cc(-c3noc(C(F)F)n3)ccc21)c1ccnc(CO)c1` [Compound 664, (R)-N-(5-(5-(difluoromethyl)-1,2,4-oxadiazol-3-yl)-2,3-dihydro-1H-inden-1-yl)-2-(hydroxymethyl)isonicotinamide], in assay [1], the “CDMF75 IC15” value amounted to 500 nM and the IC50 is 1900 nM. In assay [3] (setting [4]), the inhibition in vivo at 6 mg/kg turned out to be 65 ± 4%. In addition, in assay [3], the IC50 was 3300 nM and the IC10 is 1200 nM. Also, the inhibition in vivo at 6 mg/kg in assay [3] (setting [5]) amounted to 38 ± 5%.
